From ChEMBL document CHEMBL6071207, “In Vivo-Active Soluble Epoxide Hydrolase-Targeting PROTACs with Improved Potency and Stability” (ACS Med Chem Lett, 2024)
The source made the active and inactive calls. No cut-off for these calls is given here.

Experiments:
[1] = target: T1, Bifunctional epoxide hydrolase 2 (Mus musculus, UniProt P34914); test: Inhibition of mouse recombinant sEH using fluorogenic substrate
T1 sequence (P34914 whole entry): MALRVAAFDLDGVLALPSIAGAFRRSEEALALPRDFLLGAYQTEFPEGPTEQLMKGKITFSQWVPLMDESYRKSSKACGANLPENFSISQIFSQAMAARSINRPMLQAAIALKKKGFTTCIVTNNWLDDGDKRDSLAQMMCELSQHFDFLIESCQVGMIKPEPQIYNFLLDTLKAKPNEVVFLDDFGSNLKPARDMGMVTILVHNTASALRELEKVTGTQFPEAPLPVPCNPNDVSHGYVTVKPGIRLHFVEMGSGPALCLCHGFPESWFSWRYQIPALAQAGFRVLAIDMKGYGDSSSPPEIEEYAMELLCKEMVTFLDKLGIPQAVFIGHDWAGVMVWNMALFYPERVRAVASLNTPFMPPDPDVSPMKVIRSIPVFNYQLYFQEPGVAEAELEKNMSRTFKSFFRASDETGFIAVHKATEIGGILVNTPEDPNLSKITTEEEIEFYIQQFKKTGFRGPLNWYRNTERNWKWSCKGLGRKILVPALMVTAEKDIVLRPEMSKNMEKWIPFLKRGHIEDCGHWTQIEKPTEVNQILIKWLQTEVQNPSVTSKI

[2] = Chemical stability of compound in cell culture medium assessed as half life measured for 24 hrs by LC-MS analysis; assay type: physicochemical
[3] = Metabolic stability in mouse liver microsome assessed as half life incubated for 5 to 45 mins in presence of NADPH by UPLC-MS/MS analysis; assay type: ADME; conditions: liver microsomes, time 5-45 min
[4] = Metabolic stability in mouse liver microsome assessed as intrinsic clearance incubated for 5 to 45 mins in presence of NADPH by UPLC-MS/MS analysis; assay type: ADME; conditions: liver microsomes, time 5-45 min, read-out: CLH
[5] = Metabolic stability in mouse liver microsome assessed as parent compound remaining incubated for 5 to 45 mins in absence of NADPH by UPLC-MS/MS analysis; assay type: ADME; conditions: microsomes, time 5-45 min
HepG2 = test: Cytotoxicity against human HepG2 cells assessed as cell viability at 1 uM incubated for 24 hrs by MTT assay; conditions: HepG2, 24 h, read-out: Activity
[6] = Half life in male CD-1 mouse at 10 mg/kg, ip measured up to 24 hrs by LC-MS/MS analysis; assay type: ADME, organism-based; conditions: in vivo
[7] = Tmax in male CD-1 mouse at 10 mg/kg, ip measured up to 24 hrs by LC-MS/MS analysis; assay type: ADME, organism-based; conditions: in vivo
[8] = Cmax in male CD-1 mouse at 10 mg/kg, ip measured up to 24 hrs by LC-MS/MS analysis; assay type: ADME, organism-based; conditions: in vivo
[9] = AUC (0 to infinity) in male CD-1 mouse at 10 mg/kg, ip measured up to 24 hrs by LC-MS/MS analysis; assay type: ADME, organism-based; conditions: in vivo
[10] = MRT (0 to infinity) in male CD-1 mouse at 10 mg/kg, ip measured up to 24 hrs by LC-MS/MS analysis; assay type: ADME, organism-based; conditions: in vivo
[11] = Chemical stability of compound in cell culture medium assessed as degradation measured after 24 hrs by LC-MS analysis; assay type: physicochemical; conditions: read-out: Drug degradation
HEK293T = test: Inhibition of IRE1alpha phosphorylation in HEK293T cells at 100 nM pretreated with compound for 12 hrs followed by thapsigargin addition and measured after 24 hrs by immunoblotting analysis; assay type: cell-based; conditions: Homo sapiens, time 36.0 hrs
[12] = target: T2, Eukaryotic translation initiation factor 2-alpha kinase 3 (Homo sapiens) (UniProt Q9NZJ5); test: Inhibition of PERK phosphorylation in HEK293T cells at 100 nM pretreated with compound for 12 hrs followed by thapsigargin addition and measured after 24 hrs by immunoblotting analysis; assay type: cell-based; conditions: time 36.0 hrs
T2 sequence (whole entry): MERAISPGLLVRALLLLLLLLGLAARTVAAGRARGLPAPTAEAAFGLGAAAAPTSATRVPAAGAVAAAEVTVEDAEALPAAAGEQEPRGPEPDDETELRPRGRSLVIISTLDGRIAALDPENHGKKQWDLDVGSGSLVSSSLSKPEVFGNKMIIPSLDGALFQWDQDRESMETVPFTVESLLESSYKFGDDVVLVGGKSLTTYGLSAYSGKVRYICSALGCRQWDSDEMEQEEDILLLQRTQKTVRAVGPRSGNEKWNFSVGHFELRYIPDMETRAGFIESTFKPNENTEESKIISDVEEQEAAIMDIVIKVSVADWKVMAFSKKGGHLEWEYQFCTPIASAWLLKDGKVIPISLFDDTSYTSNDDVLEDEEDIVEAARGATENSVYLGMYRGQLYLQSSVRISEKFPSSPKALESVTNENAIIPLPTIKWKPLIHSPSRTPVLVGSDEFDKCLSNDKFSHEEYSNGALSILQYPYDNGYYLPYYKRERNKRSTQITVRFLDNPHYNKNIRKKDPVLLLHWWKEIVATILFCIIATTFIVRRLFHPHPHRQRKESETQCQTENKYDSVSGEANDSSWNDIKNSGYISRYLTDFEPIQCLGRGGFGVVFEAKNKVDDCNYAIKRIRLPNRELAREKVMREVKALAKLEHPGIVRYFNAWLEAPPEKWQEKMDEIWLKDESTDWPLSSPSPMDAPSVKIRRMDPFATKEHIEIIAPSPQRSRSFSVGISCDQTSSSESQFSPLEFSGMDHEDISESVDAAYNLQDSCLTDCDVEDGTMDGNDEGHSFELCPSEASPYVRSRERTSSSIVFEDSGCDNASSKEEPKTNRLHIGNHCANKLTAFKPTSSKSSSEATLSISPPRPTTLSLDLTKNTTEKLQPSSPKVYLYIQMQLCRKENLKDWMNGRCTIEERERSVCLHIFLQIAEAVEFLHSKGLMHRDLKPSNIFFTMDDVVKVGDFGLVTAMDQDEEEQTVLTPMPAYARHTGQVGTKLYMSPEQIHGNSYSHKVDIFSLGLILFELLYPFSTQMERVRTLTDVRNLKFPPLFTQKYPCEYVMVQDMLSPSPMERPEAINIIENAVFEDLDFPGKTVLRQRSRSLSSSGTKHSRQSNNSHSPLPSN

[13] = target: Eukaryotic translation initiation factor 2 subunit 1 (Homo sapiens) (UniProt P05198); test: Inhibition of eIF2alpha phosphorylation in HEK293T cells at 100 nM pretreated with compound for 12 hrs followed by thapsigargin addition and measured after 24 hrs by immunoblotting analysis; assay type: cell-based; conditions: time 36.0 hrs
Sequence of Eukaryotic translation initiation factor 2 subunit 1 (Homo sapiens) (P05198 whole entry): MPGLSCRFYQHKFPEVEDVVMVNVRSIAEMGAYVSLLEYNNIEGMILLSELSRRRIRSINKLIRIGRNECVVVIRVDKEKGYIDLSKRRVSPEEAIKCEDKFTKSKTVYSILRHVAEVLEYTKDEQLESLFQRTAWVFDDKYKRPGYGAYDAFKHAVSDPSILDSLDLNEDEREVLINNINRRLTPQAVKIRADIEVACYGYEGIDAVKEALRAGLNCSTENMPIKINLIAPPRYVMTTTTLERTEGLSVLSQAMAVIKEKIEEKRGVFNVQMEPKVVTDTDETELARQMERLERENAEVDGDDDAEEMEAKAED

[14] = target: Protein cereblon/Bifunctional epoxide hydrolase 2 (Homo sapiens, UniProt P34913+Q96SW2); test: PROTAC activity at sEH/CRBN in human HepG2 cells assessed as induction of sEH degradation measured for 24 hrs by immunoblot analysis; assay type: cell-based
Sequence of Protein cereblon/Bifunctional epoxide hydrolase 2 (P34913 whole entry): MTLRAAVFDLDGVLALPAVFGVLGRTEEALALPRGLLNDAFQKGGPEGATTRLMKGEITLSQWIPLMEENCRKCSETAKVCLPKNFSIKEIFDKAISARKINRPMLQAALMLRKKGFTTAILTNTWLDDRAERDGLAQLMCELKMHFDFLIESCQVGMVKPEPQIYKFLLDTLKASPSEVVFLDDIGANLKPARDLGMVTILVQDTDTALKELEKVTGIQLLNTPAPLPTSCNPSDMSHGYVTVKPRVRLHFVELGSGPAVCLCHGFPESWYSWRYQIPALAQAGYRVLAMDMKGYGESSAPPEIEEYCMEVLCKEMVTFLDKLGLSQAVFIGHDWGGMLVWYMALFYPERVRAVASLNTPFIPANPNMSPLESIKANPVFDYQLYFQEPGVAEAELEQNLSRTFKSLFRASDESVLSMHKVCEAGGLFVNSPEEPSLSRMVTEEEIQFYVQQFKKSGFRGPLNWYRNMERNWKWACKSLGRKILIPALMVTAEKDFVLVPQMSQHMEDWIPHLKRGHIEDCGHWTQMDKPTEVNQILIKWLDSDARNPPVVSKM
Sequence of Protein cereblon/Bifunctional epoxide hydrolase 2 (Q96SW2 whole entry): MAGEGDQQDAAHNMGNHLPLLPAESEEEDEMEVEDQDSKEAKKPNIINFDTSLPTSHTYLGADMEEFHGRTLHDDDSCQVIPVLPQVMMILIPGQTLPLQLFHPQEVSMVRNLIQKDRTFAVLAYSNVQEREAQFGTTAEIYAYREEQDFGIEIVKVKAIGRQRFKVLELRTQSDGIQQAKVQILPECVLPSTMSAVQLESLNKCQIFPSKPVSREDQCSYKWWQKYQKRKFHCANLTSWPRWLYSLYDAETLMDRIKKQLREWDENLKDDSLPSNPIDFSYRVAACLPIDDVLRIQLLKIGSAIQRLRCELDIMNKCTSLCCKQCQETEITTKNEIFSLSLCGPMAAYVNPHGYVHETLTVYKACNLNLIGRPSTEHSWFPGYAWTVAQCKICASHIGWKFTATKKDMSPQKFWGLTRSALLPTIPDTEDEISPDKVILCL

O=C1CCC(N2C(=O)c3ccc(N4CCN(C(=O)CCCCCCCCNC(=O)c5ccc(O[C@H]6CC[C@H](NC(=O)Nc7ccc(OC(F)(F)F)cc7)CC6)cc5)CC4)cc3C2=O)C(=O)N1 (stereo not given in full)
IC50 [1]: 9.9 nM
half-life [2]: > 24 h
half-life [3]: 0.517 h
CLint scaled [4]: 10.2 L/h/kg
Stability [5]: > 99%

O=C1CCC(N2C(=O)c3cc(F)c(N4CCN(CC5CCN(C(=O)CCCCCCCCNC(=O)c6ccc(O[C@H]7CC[C@H](NC(=O)Nc8ccc(OC(F)(F)F)cc8)CC7)cc6)CC5)CC4)cc3C2=O)C(=O)N1 (stereo not given in full)
IC50 [1]: 20 nM

O=C1CCC(N2C(=O)c3cccc(NCCOCCOCCOCCOCCC(=O)N4CCC(NC(=O)Nc5ccc(OC(F)(F)F)cc5)CC4)c3C2=O)C(=O)N1 (stereo not given)
IC50 [1]: 4.6 nM

Cc1ncsc1-c1ccc(CNC(=O)[C@@H]2C[C@@H](O)CN2C(=O)[C@@H](NC(=O)CCOCCOCCOCCOCCC(=O)N2CCC(NC(=O)Nc3ccc(OC(F)(F)F)cc3)CC2)C(C)(C)C)cc1
IC50 [1]: 10 nM

O=C1CCC(N2Cc3ccc(N4CCN(CC5CCN(C(=O)CCCCCCCCNC(=O)c6ccc(O[C@H]7CC[C@H](NC(=O)Nc8ccc(OC(F)(F)F)cc8)CC7)cc6)CC5)CC4)cc3C2=O)C(=O)N1 (stereo not given in full)
IC50 [1]: 4.8 nM
viability at 1 µM (HepG2): 7%
half-life [6]: 7.1 h
Tmax [7]: 0.33 h
Cmax [8]: 3500 ng/mL
AUC(0-inf) [9]: 31000 ng·h/mL
MRT inf [10]: 9.3 h

O=C(COc1cccc2c1C(=O)N(C1CCC(=O)NC1=O)C2=O)NCCOCCOCCOCCOCCNC(=O)c1ccc(O[C@H]2CC[C@H](NC(=O)Nc3ccc(OC(F)(F)F)cc3)CC2)cc1 (stereo not given in full)
degraded at 24 h [11]: ~100%
half-life [2]: 1.1 h
half-life [3]: 0.00983 h
CLint scaled [4]: 552 L/h/kg
Stability [5]: 90%
inhibition (HEK293T): inactive
inhibition [12]: inactive
inhibition [13]: inactive

O=C(COc1cccc2c1C(=O)N(C1CCC(=O)NC1=O)C2=O)NCCOCCOCCOCCCNC(=O)c1ccc(O[C@H]2CC[C@H](NC(=O)Nc3ccc(OC(F)(F)F)cc3)CC2)cc1 (stereo not given in full)
DC50 [14]: > 1000 nM
degraded at 24 h [11]: ~100%
